Experimental data: US20110055943A1, “NOVEL THERAPEUTIC TARGETS IN INFLAMMATORY BOWEL DISEASE” (SALIX PHARMACEUTICALS, LTD., priority 2007, published 2011)

How the values were obtained:
[1] = Intestinal tract distribution of RIF and RIFax in mice (intestinal contents, LC-MS/MS); assay type: in vivo; conditions: mice; for intestinal tract concentration compared with RIF: oral treatment
Experimental: (§1) The maximum concentration in serum (Cmax) was obtained from the original data. […] Intestinal contents were weighted, and homogenized in methanol (100 mg/ml). The homogenate was centrifuged at 14,000 rpm for 10 min at 4° C.
(§2) The mass spectrometer was operated in the turbo ion spray mode with positive ion detection. The turbo ion spray temperature was maintained at 300° C., and a voltage of 4.8 kV was applied to the sprayer needle. N2 was used as the turbo ion spray and nebulizing gas.

CYP3A4 [2] = conditions: human hepatocytes; cited from earlier work
[3] = system: PXR target genes (CYP3A11, GSTA1, MRP2, OATP2); experiment: qPCR analysis of PXR target genes in Pxr-null mice; assay type: in vivo
[4] = system: PXR target genes (CYP3A11, GSTA1, MRP2, OATP2); experiment: qPCR analysis of PXR target genes in WT mice; assay type: in vivo, wild-type (WT) mice
CAR = target: T1, CAR (Mus musculus, UniProt O35627); experiment: Cell-based reporter assay, transfected HCT116 cells, dual luciferase; conditions: 10 μM, 24 h
T1 construct: expressed in transfected cells; host or cells: HCT116
T1 sequence (O35627 1-358): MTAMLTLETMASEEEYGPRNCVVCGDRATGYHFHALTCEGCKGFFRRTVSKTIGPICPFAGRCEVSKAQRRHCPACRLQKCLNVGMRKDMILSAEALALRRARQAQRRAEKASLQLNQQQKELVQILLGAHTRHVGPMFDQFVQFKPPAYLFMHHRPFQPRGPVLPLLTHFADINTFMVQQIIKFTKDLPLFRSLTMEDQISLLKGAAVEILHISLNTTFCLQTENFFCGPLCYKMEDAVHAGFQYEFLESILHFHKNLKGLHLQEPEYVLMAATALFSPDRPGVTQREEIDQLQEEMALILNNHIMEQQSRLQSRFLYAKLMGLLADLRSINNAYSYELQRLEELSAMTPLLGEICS
Experimental: A hepG2 cell line (DPX2) with stable expression of recombinant human PXR and a PXR-response element cloned in a luciferase vector was obtained from Puracyp Inc. (Carlsbad, Calif.). The construction and validation of the cell lines were reported previously (Yueh et al., 2005). The cells were seeded according to the distributor's instruction. […] The activation of PXR was determined by measuring the firefly luciferase activity 24 h later, followed by normalization of luciferase activity by protein concentrations. For cell-based reporter assay of nuclear receptors CAR, PPARα, PPARγ, and FXR, HCT116 cells were plated on 24-well plates (5×10^4 cells/well, cultured in DMEM containing 10% FBS), and transfected with the various expression vectors using Fugene transfection reagent (Roche, Indianapolis, Ind.). The mouse PPAR and CAR vectors were described in previous reports (Kliewer et al., 1992; Swales et al., 2005). The mouse FXR vector was provided by Dr Christopher J. Sinal. […] TCPOBOP (250 nM), Wy-14,643 (10 μM), rosiglitazone (10 μM), and GW4064 (25 μM) were used as positive controls respectively for mouse CAR, PPARα, PPARγ, and FXR. A standard dual luciferase assay was used and normalized to a cotransfected control reporter (Promega, Madison, Wis.). Each in vitro assay was repeated at least three times.

[5] = system: PXR target genes (CYP3A11, GSTA1, MRP2, OATP2); experiment: qPCR analysis of PXR target genes in hPXR mice
Experimental: RIF, a specific human PXR ligand, was used as positive control at 25 mg/kg/day (p.o.) for 3 days. […] Liver and small intestine were collected and frozen at −80° C. for further analysis.
RNA was extracted from different tissues using TRIzol reagent (Invitrogen, Carlsbad, Calif.). qPCR was performed using cDNA generated from 1 μg total RNA with SuperScript II Reverse Transcriptase kit (Invitrogen). PCR reactions were carried out using SYBR green PCR master mix (SuperArray) in an ABI Prism 7900HT Sequence Detection System (Applied Biosystems, Foster City, Calif.). Values were quantified using the Comparative CT method, and samples normalized to β-actin.

human PXR = target: T2, human PXR (Homo sapiens, UniProt O75469); experiment: Cell-based reporter assay, DPX2 (hepG2) cell line, luciferase; conditions: for increase in luciferase activity vs DMSO control: 24 h, DPX2 cells
T2 construct: host or cells: DPX2 (HepG2 derivative)
T2 sequence (O75469 1-434): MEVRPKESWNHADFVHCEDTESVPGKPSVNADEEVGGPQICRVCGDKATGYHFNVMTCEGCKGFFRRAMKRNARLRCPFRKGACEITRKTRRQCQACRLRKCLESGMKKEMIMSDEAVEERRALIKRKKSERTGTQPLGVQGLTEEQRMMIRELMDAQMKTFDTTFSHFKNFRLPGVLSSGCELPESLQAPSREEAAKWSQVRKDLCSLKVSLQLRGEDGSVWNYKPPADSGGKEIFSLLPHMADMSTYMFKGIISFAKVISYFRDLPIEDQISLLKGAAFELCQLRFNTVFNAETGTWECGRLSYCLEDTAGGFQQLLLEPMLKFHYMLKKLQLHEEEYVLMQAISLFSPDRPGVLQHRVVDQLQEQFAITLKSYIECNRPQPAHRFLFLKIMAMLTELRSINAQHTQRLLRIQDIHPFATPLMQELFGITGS
Experimental: A hepG2 cell line (DPX2) with stable expression of recombinant human PXR and a PXR-response element cloned in a luciferase vector was obtained from Puracyp Inc. (Carlsbad, Calif.). […] The cells were seeded according to the distributor's instruction. […] For cell-based reporter assay of nuclear receptors CAR, PPARα, PPARγ, and FXR, HCT116 cells were plated on 24-well plates (5×10^4 cells/well, cultured in DMEM containing 10% FBS), and transfected with the various expression vectors using Fugene transfection reagent (Roche, Indianapolis, Ind.). […] The mouse FXR vector was provided by Dr Christopher J. Sinal. […] A standard dual luciferase assay was used and normalized to a cotransfected control reporter (Promega, Madison, Wis.). Each in vitro assay was repeated at least three times.

[6] = Serum pharmacokinetics of RIF and RIFax in mice (p.o., i.p., i.v.; LC-MS/MS); assay type: in vivo
Experimental: as §1, §2

CYP3A4 [7] = conditions: two clinical studies; cited from earlier work
[8] = small intestine, 25 mg/kg/day p.o. 3 days
[9] = WT mice, small intestine, 25 mg/kg/day p.o. 3 days

COC1/C=C/OC2(C)Oc3c(C)c(O)c4c(O)c(c5c(nc6cc(C)ccn65)c4c3C2=O)NC(=O)/C(C)=C\C=C\C(C)C(O)C(C)C(O)C(C)C(OC(C)=O)C1C (stereo not drawn) [RIFax, 4-Deoxy-4′-methylpyrido[1′,2′-1,2]imidazo[5,4-c]rifamycin SV]
concentration in the intestinal tract (intestinal content) ([1]; 10 mg/kg single dose p.o.): up to 150 ug/g
concentration in the intestinal tract (intestinal content), molar ([1]; 10 mg/kg single dose p.o.): about 200 μM
intestinal tract concentration compared with RIF [1]: significantly higher
intestinal tract concentration compared with RIF ([1]; listed as Rifaximin): highly concentrated
concentration in the small intestine (content) ([1]; single oral dose 10 mg/kg): ~160 µg/g
time the small intestine concentration lasted following administration ([1]; single oral dose 10 mg/kg): 9 h
CYP3A4 in a human hepatocyte model (CYP3A4 [2]): induction
effect on hepatic PXR target genes ([3]; liver, oral treatment): no significant effect
Intestinal CYP3A11 expression [3, 8]: no significant change
Intestinal GSTA1 mRNA increase [3, 8]: 74%
Intestinal OATP2 mRNA [3, 8]: no significant induction
intestinal MRP2 mRNA [3, 8]: no change
Intestinal CYP3A11 expression [4, 9]: inhibited
Intestinal GSTA1 mRNA increase [4, 9]: 87%
Intestinal OATP2 mRNA [4, 9]: no significant induction
intestinal MRP2 mRNA [4, 9]: significantly suppressed
effect on hepatic PXR target genes ([4]; wild-type mice, liver, oral treatment): no significant effect
change in luciferase activity in the presence of CAR (CAR): no significant change
CYP3A11, GSTA1, MRP2 and OATP2 mRNAs in small intestine ([5]; 25 mg/kg/day p.o. 3 days): all up-regulated
MRP2 in the gut ([5]; 25 mg/kg/day p.o. 3 days): only modestly induced
PXR target genes in the intestine ([5]; intestine, oral treatment): significant induction
GSTA1 in liver ([5]; liver, 25 mg/kg/day p.o. 3 days): increased
effect on hepatic PXR target genes ([5]; liver, oral treatment): no significant effect
Intestinal CYP3A11 increase compared to vehicle-treated mice [5, 8]: ~4 fold
Intestinal GSTA1 mRNA increase [5, 8]: 172%
Intestinal OATP2 mRNA increase [5, 8]: 3.4 fold
intestinal MRP2 mRNA [5, 8]: significant up-regulation
increase in luciferase activity vs DMSO control (human PXR; 1 μM): 2.1 fold
increase in luciferase activity vs DMSO control (human PXR; 10 μM): 6.7 fold
increase in luciferase activity vs DMSO control (human PXR; 100 μM): 25.2 fold
EC50 (human PXR; DPX2 cell line, read-out: EC50 for activation of hPXR): ~20 µM
AUC compared with RIF ([6]; mice, 10 mg/kg i.v.): -low
T1/2 compared with RIF ([6]; mouse, in vivo, iv, 10 mg/kg): ultra-short
Cmax ([6]; mouse, serum, mice, single oral dose 10 mg/kg, read-out: Cmax of serum): 40 nM
effect on intestinal or hepatic CYP3A4 (CYP3A4 [7]): no significant effect
effect on the pharmacokinetics of MDZ and of ethinyl estradiol and norgestimate (CYP3A4 [7]): did not alter
